Measurements reported in PubChem BioAssay (NCI).
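1) Cells in 96-well plates. 2) Compound, 48 h, 5 concentrations. 3) Linear interpolation between surrounding doses. 4) Unreached endpoint = highest concentration. Abbreviation: GI50, concentration required for 50% inhibition of growth. TGI denotes the concentration required for complete inhibition of growth.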

Assays:
Assay in all cases: DTP human tumour cell line panel, 48 h
BT-549 breast = system: BT-549 breast
SK-MEL-28 melanoma = system: SK-MEL-28 melanoma
A498 renal = system: A498 renal
SK-OV-3 ovarian = system: SK-OV-3 ovarian
UACC-62 melanoma = system: UACC-62 melanoma
TK-10 renal = system: TK-10 renal
M14 melanoma = system: M14 melanoma
HL-60(TB) leukemia = system: HL-60(TB) leukemia
SF-539 CNS = system: SF-539 CNS
PC-3 prostate = system: PC-3 prostate
SNB-75 CNS = system: SNB-75 CNS
NCI/ADR-RES ovarian = system: NCI/ADR-RES ovarian
A549 NSCLC = system: A549 NSCLC
RXF 393 renal = system: RXF 393 renal
MCF7 breast = system: MCF7 breast
RPMI-8226 leukemia = system: RPMI-8226 leukemia
OVCAR-4 ovarian = system: OVCAR-4 ovarian
NCI-H522 lung = system: NCI-H522 lung
OVCAR-8 ovarian = system: OVCAR-8 ovarian
OVCAR-3 ovarian = system: OVCAR-3 ovarian
SK-MEL-5 melanoma = system: SK-MEL-5 melanoma
EKVX NSCLC = system: EKVX NSCLC
786-0 renal = system: 786-0 renal
DU-145 prostate = system: DU-145 prostate
HT29 colon = system: HT29 colon
UACC-257 melanoma = system: UACC-257 melanoma
HS 578T breast = system: HS 578T breast
T-47D breast = system: T-47D breast
SK-MEL-2 melanoma = system: SK-MEL-2 melanoma
HCC-2998 colon = system: HCC-2998 colon
SF-295 CNS = system: SF-295 CNS
CAKI-1 renal = system: CAKI-1 renal
MOLT-4 leukemia = system: MOLT-4 leukemia
OVCAR-5 ovarian = system: OVCAR-5 ovarian
SF-268 CNS = system: SF-268 CNS
CCRF-CEM leukemia = system: CCRF-CEM leukemia
SNB-19 CNS = system: SNB-19 CNS
HCT-15 colon = system: HCT-15 colon
K-562 leukemia = system: K-562 leukemia
HCT-116 colon = system: HCT-116 colon
COLO 205 colon = system: COLO 205 colon
SR leukemia = system: SR leukemia
MDA-MB-435 = system: MDA-MB-435
HOP-62 NSCLC = system: HOP-62 NSCLC
LOX IMVI melanoma = system: LOX IMVI melanoma
MALME-3M melanoma = system: MALME-3M melanoma
IGROV1 ovarian = system: IGROV1 ovarian
U251 CNS = system: U251 CNS
UO-31 renal = system: UO-31 renal
HOP-92 NSCLC = system: HOP-92 NSCLC
SW-620 colon = system: SW-620 colon
ACHN renal = system: ACHN renal
NCI-H226 lung = system: NCI-H226 lung
MDA-MB-231 breast = system: MDA-MB-231 breast
SN12C renal = system: SN12C renal
NCI-H460 lung = system: NCI-H460 lung
KM12 colon = system: KM12 colon

NC(N)=Nc1ccc(Oc2cccc(Nc3cccc(C(F)(F)F)c3)c2)cn1 showed a GI50 (BT-549 breast) of 1.76 µM, a TGI (BT-549 breast) of 3.3 µM and a GI50 (SK-MEL-28 melanoma) of 1.7 µM. It also gave a TGI (SK-MEL-28 melanoma) of 3.16 µM, a GI50 (A498 renal) of 1.51 µM and a TGI (A498 renal) of 3.02 µM. For the same compound, the GI50 (SK-OV-3 ovarian) was 2.08 µM, the TGI (SK-OV-3 ovarian) was 4.27 µM and the GI50 (UACC-62 melanoma) was 1.79 µM. For the same compound, the TGI (UACC-62 melanoma) was 3.4 µM, the GI50 (TK-10 renal) was 1.85 µM and the TGI (TK-10 renal) was 3.63 µM. For the same compound, the GI50 (M14 melanoma) was 1.76 µM, the TGI (M14 melanoma) was 3.33 µM and the GI50 (HL-60(TB) leukemia) was 2.04 µM. It also gave a TGI (HL-60(TB) leukemia) of 4.36 µM, a GI50 (SF-539 CNS) of 1.72 µM and a TGI (SF-539 CNS) of 3.22 µM. It also gave a GI50 (PC-3 prostate) of 1.47 µM, a TGI (PC-3 prostate) of 2.88 µM and a GI50 (SNB-75 CNS) of 1.37 µM. The TGI (SNB-75 CNS) was 2.74 µM, the GI50 (NCI/ADR-RES ovarian) was 4.85 µM and the TGI (NCI/ADR-RES ovarian) was 37.6 µM. For the same compound, the GI50 (A549 NSCLC) was 1.88 µM, the TGI (A549 NSCLC) was 4.42 µM and the GI50 (RXF 393 renal) was 1.76 µM. It also gave a TGI (RXF 393 renal) of 3.39 µM.

CC[C@H](CO)Nc1ccc2ncc(C#Cc3cncc(C(=O)Nc4ccc(CN5CCN(C)CC5)c(C(F)(F)F)c4)c3)n2n1 showed a GI50 (MCF7 breast) of 0.163 µM, a TGI (MCF7 breast) of 0.807 µM and a GI50 (RPMI-8226 leukemia) of 0.577 µM. For the same compound, the TGI (RPMI-8226 leukemia) was 1.8 µM, the GI50 (OVCAR-4 ovarian) was 0.507 µM and the TGI (OVCAR-4 ovarian) was 2.54 µM. It also gave a GI50 (NCI-H522 lung) of 0.238 µM, a TGI (NCI-H522 lung) of 0.997 µM and a GI50 (OVCAR-8 ovarian) of 0.589 µM. It also gave a TGI (OVCAR-8 ovarian) of 1.32 µM, a GI50 (OVCAR-3 ovarian) of 0.576 µM and a TGI (OVCAR-3 ovarian) of 1.63 µM. It also gave a GI50 (BT-549 breast) of 0.58 µM, a TGI (BT-549 breast) of 1.67 µM and a GI50 (SK-MEL-5 melanoma) of 0.766 µM. For the same compound, the TGI (SK-MEL-5 melanoma) was 1.46 µM, the GI50 (EKVX NSCLC) was 0.391 µM and the TGI (EKVX NSCLC) was 1.62 µM. The GI50 (SK-MEL-28 melanoma) was 0.681 µM, the TGI (SK-MEL-28 melanoma) was 1.49 µM and the GI50 (786-0 renal) was 0.362 µM. The TGI (786-0 renal) was 1.08 µM, the GI50 (DU-145 prostate) was 0.579 µM and the TGI (DU-145 prostate) was 1.43 µM. The GI50 (HT29 colon) was 0.221 µM, the TGI (HT29 colon) was 0.933 µM and the GI50 (UACC-257 melanoma) was 0.76 µM. The TGI (UACC-257 melanoma) was 1.53 µM, the GI50 (HS 578T breast) was 0.2 µM and the TGI (HS 578T breast) was 1.07 µM. The GI50 (T-47D breast) was 0.9 µM, the TGI (T-47D breast) was 2.92 µM and the GI50 (SK-MEL-2 melanoma) was 0.47 µM. For the same compound, the TGI (SK-MEL-2 melanoma) was 1.21 µM, the GI50 (HCC-2998 colon) was 0.703 µM and the TGI (HCC-2998 colon) was 1.69 µM. For the same compound, the GI50 (SF-295 CNS) was 0.555 µM, the TGI (SF-295 CNS) was 1.6 µM and the GI50 (A498 renal) was 0.266 µM. For the same compound, the TGI (A498 renal) was 0.721 µM, the GI50 (CAKI-1 renal) was 0.349 µM and the TGI (CAKI-1 renal) was 1.11 µM. It also gave a GI50 (SK-OV-3 ovarian) of 1.19 µM, a TGI (SK-OV-3 ovarian) of 2.78 µM and a GI50 (MOLT-4 leukemia) of 0.239 µM. For the same compound, the TGI (MOLT-4 leukemia) was 1.94 µM, the GI50 (OVCAR-5 ovarian) was 0.553 µM and the TGI (OVCAR-5 ovarian) was 2.07 µM. For the same compound, the GI50 (SF-268 CNS) was 0.246 µM, the TGI (SF-268 CNS) was 1.22 µM and the GI50 (CCRF-CEM leukemia) was 0.188 µM. For the same compound, the TGI (CCRF-CEM leukemia) was 1.37 µM, the GI50 (SNB-19 CNS) was 0.88 µM and the TGI (SNB-19 CNS) was 3.28 µM. The GI50 (HCT-15 colon) was 0.813 µM, the TGI (HCT-15 colon) was 2.07 µM and the GI50 (K-562 leukemia) was 0.0158 µM. For the same compound, the TGI (K-562 leukemia) was 0.636 µM, the GI50 (HCT-116 colon) was 0.17 µM and the TGI (HCT-116 colon) was 0.662 µM. For the same compound, the GI50 (COLO 205 colon) was 0.126 µM, the TGI (COLO 205 colon) was 0.319 µM and the GI50 (SR leukemia) was 0.196 µM. For the same compound, the TGI (SR leukemia) was 0.888 µM, the GI50 (MDA-MB-435) was 0.451 µM and the TGI (MDA-MB-435) was 1.09 µM. It also gave a GI50 (UACC-62 melanoma) of 0.767 µM, a TGI (UACC-62 melanoma) of 1.57 µM and a GI50 (TK-10 renal) of 1 µM. It also gave a TGI (TK-10 renal) of 2.45 µM, a GI50 (M14 melanoma) of 0.322 µM and a TGI (M14 melanoma) of 1.01 µM. It also gave a GI50 (HOP-62 NSCLC) of 0.288 µM, a TGI (HOP-62 NSCLC) of 1.09 µM and a GI50 (HL-60(TB) leukemia) of 0.218 µM. The TGI (HL-60(TB) leukemia) was 0.648 µM, the GI50 (LOX IMVI melanoma) was 0.206 µM and the TGI (LOX IMVI melanoma) was 0.817 µM. For the same compound, the GI50 (SF-539 CNS) was 0.0454 µM, the TGI (SF-539 CNS) was 0.266 µM and the GI50 (MALME-3M melanoma) was 0.66 µM. For the same compound, the TGI (MALME-3M melanoma) was 1.43 µM, the GI50 (PC-3 prostate) was 0.67 µM and the TGI (PC-3 prostate) was 2.8 µM. The GI50 (IGROV1 ovarian) was 0.152 µM, the TGI (IGROV1 ovarian) was 0.835 µM and the GI50 (U251 CNS) was 0.58 µM. The TGI (U251 CNS) was 1.31 µM, the GI50 (UO-31 renal) was 0.94 µM and the TGI (UO-31 renal) was 2.14 µM. For the same compound, the GI50 (HOP-92 NSCLC) was 0.07 µM, the TGI (HOP-92 NSCLC) was 0.307 µM and the GI50 (SW-620 colon) was 0.186 µM. For the same compound, the TGI (SW-620 colon) was 0.803 µM, the GI50 (ACHN renal) was 0.442 µM and the TGI (ACHN renal) was 1.13 µM. For the same compound, the GI50 (SNB-75 CNS) was 0.0484 µM, the TGI (SNB-75 CNS) was 0.314 µM and the GI50 (NCI-H226 lung) was 0.205 µM. The TGI (NCI-H226 lung) was 1.17 µM, the GI50 (NCI/ADR-RES ovarian) was 5.85 µM and the TGI (NCI/ADR-RES ovarian) was 13.4 µM. For the same compound, the GI50 (MDA-MB-231 breast) was 0.142 µM, the TGI (MDA-MB-231 breast) was 0.903 µM and the GI50 (SN12C renal) was 0.16 µM. For the same compound, the TGI (SN12C renal) was 1.03 µM, the GI50 (NCI-H460 lung) was 0.423 µM and the TGI (NCI-H460 lung) was 1.14 µM. It also gave a GI50 (A549 NSCLC) of 0.356 µM, a TGI (A549 NSCLC) of 1.45 µM and a GI50 (KM12 colon) of 0.0165 µM. For the same compound, the TGI (KM12 colon) was 1.18 µM, the GI50 (RXF 393 renal) was 0.273 µM and the TGI (RXF 393 renal) was 0.91 µM.
